# Laboratory results from patent US20100048462A1, “TRUNCATED PTH PEPTIDES WITH A CYCLIC CONFORMATION” (Zealand Pharma A/S, priority 2006, published 2010).
# Bridge positions count the residues as written; N and C are the ends. Square brackets hold non-standard residues; d marks the D form. Peptide text beside a SMILES is read from it. hArg = N=C(N)NCCCC[C@H](N)C(=O)O; Nle = CCCC[C@H](N)C(=O)O; Ac5c = NC1(C(=O)O)CCCC1; Dap = NC[C@H](N)C(=O)O; Aib = CC(C)(N)C(=O)O
# Tests used:
# Saos-2 PTH1R = target: T1, Saos-2 PTH1R (Homo sapiens, UniProt Q03431); assay: cAMP-efficacy assay in Saos-2 cells; format: cell-based; conditions: for EC50: cAMP, 100 μM IBMX, 37° C. 15 min, suffix of label = salt tested; for Emax ± SEM: relative effect to the control (SEQ ID NO: 32)
# T1 construct: endogenous in cells; host or cells: Saos-2
# T1 sequence (Q03431 27-593): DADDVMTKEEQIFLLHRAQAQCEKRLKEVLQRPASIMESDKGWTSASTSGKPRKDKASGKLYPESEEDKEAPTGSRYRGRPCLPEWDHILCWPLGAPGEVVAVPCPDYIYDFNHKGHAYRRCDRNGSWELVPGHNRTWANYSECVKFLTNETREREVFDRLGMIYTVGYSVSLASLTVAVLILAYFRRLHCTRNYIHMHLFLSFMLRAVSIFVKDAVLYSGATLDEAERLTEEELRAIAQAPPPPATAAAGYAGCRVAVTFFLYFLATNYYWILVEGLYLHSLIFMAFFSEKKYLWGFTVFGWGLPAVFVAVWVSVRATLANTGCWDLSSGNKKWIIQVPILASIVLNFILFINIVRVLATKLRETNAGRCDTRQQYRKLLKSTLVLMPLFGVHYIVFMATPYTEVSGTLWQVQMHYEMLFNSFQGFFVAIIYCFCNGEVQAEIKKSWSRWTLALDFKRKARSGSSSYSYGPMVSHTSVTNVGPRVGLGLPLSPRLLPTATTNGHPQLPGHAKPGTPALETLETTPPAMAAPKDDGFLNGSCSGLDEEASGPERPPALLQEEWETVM
# Method in brief: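 cAMP accumulation was assayed by FlashPlate after 15 min peptide stimulation at 37 °C of Saos-2 cells in Tyrode's buffer containing 100 μM IBMX and 0.1% BSA, with the reaction stopped by ice-cold HCl. Variable-slope logistic fitting gave EC50/pEC50, Hill coefficient and Emax, with single or triplicate points.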
# CYP2D6 = CYP2D6 (Homo sapiens, UniProt P10635); assay: CYP2D6 inhibition in pooled human liver microsomes; format: in vitro ADME; design: Pooled human liver microsomes (HLM, final concentration 0.05 mg protein/mL); tissue BD Biosciences 452161; host or cells: pooled human liver microsomes; conditions: 10 μM compound, dextrorphan formation rate
# Protocol: Stock solutions of the test compounds (1 mM) were prepared in 50% isopropanol or 20% DMSO. Pooled human liver microsomes (HLM, final concentration 0.05 mg protein/mL) were mixed with phosphate buffer (0.1 M potassium phosphate, pH 7.4), CYP2D6 substrate (dextrometrorphan, 5 μM final concentration) and test compound (10 μM), quinidine (0.5 μM) or vehicle (0.2% DMSO or 0.5% isopropanol). The mixture was preincubated for 5 min at 37° C. prior to initiation of the reaction addition of a NADPH regenerating mixture (Final concentration: 1.25 mM NADP^+, 3.3 mM Glucose-6-phosphate, 3.3 mM MgCL2 and 0.4 U/mL glucose-6-phosphat dehydrogenase). After 5 minutes the reaction was stopped by addition of 0.25 volume stop reagent (94% acetonitrile, 6% acetic acid). Each experiment was performed in duplicate or triplicate.
# The quantification of CYP2D6 product (dextrorphan) was performed by LC/MS/MS. After centrifugation for 5 min at 10.000 g, 40 μL of the supernatant was injected onto a C8 RP-HPLC column (XterraMS, C8, […], 50×2.1 mm). Dextrorphan was eluted by a linear gradient from 0 to 90% acetonitrile in 0.1% formic acid over 4 min using a flow rate of 0.15 ml/min. The concentration of dextrorphan in the reaction mixture was estimated from the peak area of the MS/MS transition (m/z 258.1>199) using an external calibration curve (Table 8).
# The CYP2D6 activity in HLM was calculated as the metabolite formation rate: […]
# Where, v is the formation rate, [metabolite] is the detected concentration of dextrorphan (pmol/mL) at the time (t, min) and [protein] is the protein concentration (mg/mL) in the reaction mixture. The influence of the test compounds on the CYP2D6 activity was calculated as % of the activity measured when incubated with the vehicle. The effect of CYP2D6 inhibitor (quinidine) was included as inhibition control within each batch analysis. A reduction in CYP2D6 activity to less than 70% of the vehicle control was considered significant.
# Sequence of CYP2D6 (P10635 whole entry): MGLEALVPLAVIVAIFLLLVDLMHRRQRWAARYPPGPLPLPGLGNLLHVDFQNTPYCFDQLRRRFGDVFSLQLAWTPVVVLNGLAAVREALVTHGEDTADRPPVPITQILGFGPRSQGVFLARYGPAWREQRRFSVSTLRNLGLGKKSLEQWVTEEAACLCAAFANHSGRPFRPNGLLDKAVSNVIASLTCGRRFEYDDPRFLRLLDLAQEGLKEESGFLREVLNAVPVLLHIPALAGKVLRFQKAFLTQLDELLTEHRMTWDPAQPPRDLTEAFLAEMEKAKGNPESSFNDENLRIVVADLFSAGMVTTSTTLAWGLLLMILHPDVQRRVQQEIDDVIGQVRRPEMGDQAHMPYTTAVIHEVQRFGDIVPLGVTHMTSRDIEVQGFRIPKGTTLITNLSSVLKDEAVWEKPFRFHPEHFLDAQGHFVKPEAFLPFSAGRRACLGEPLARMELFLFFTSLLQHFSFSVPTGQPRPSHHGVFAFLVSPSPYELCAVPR
Compound,EC50 (Saos-2 PTH1R) [nM],Emax ± SEM (Saos-2 PTH1R),CYP2D6 activity (% of vehicle) (CYP2D6)
"CC[C@H](C)[C@H](NC(=O)[C@H](CCC(=O)O)NC(=O)C(C)(C)NC(=O)[C@@H](NC(=O)C1(N)CCCC1)C(C)C)C(=O)N[C@@H](CCC(N)=O)C(=O)N[C@@H](CC(C)C)C(=O)N[C@@H](CCSC)C(=O)N[C@@H](Cc1c[nH]cn1)C(=O)N[C@@H](CCC(N)=O)C(=O)N[C@@H](CCCCNC(=N)N)C(=O)N[C@@H](C)C(=O)N[C@H]1CSSC[C@@H](C(N)=O)NC(=O)[C@H](CC(N)=O)NC(=O)[C@H](CC(C)C)NC(=O)[C@H](Cc2c[nH]c3ccccc23)NC1=O [SEQ ID NO: 7, H-Ac5c-Val-Aib-Glu-Ile-Gln-Leu-Met-His-Gln-Har-Ala-Cys( )-Trp-Leu-Asn-Cys( )-NH2] (H-[Ac5c]V[Aib]EIQLMHQ[hArg]ACWLNC-NH2; disulfide 13-17)",50.1,1.2,85 % of vehicle
"CC[C@H](C)[C@H](NC(=O)[C@H](CCC(=O)O)NC(=O)C(C)(C)NC(=O)[C@@H](NC(=O)C1(N)CCCC1)C(C)C)C(=O)N[C@@H](CCC(N)=O)C(=O)N[C@@H](CC(C)C)C(=O)N[C@@H](CCSC)C(=O)N[C@@H](Cc1c[nH]cn1)C(=O)N[C@@H](CCC(N)=O)C(=O)N[C@@H](CCCCNC(=N)N)C(=O)N[C@@H](C)C(=O)N[C@H]1CCC(=O)NCCCC[C@@H](C(N)=O)NC(=O)[C@H](CC(N)=O)NC(=O)[C@H](CC(C)C)NC(=O)[C@H](Cc2c[nH]c3ccccc23)NC1=O [SEQ ID NO: 8, H-Ac5c-Val-Aib-Glu-Ile-Gln-Leu-Met-His-Gln-Har-Ala-Glu( )-Trp-Leu-Asn-Lys( )-NH2] (H-[Ac5c]V[Aib]EIQLMHQ[hArg]AEWLNK-NH2; lactam 13-17)",11.5,1.07 ± 0.02,99 % of vehicle
"CC[C@H](C)[C@H](NC(=O)[C@H](CCC(=O)O)NC(=O)C(C)(C)NC(=O)[C@@H](NC(=O)C1(N)CCCC1)C(C)C)C(=O)N[C@@H](CCC(N)=O)C(=O)N[C@@H](CC(C)C)C(=O)N[C@@H](CCSC)C(=O)N[C@@H](Cc1c[nH]cn1)C(=O)N[C@@H](CCC(N)=O)C(=O)N[C@@H](CCCCNC(=N)N)C(=O)N[C@@H](C)C(=O)N[C@H]1CCCCNC(=O)CC[C@@H](C(N)=O)NC(=O)[C@H](CC(N)=O)NC(=O)[C@H](CC(C)C)NC(=O)[C@H](Cc2c[nH]c3ccccc23)NC1=O [SEQ ID NO: 9, H-Ac5c-Val-Aib-Glu-Ile-Gln-Leu-Met-His-Gln-Har-Ala-Lys( )-Trp-Leu-Asn-Glu( )-NH2] (H-[Ac5c]V[Aib]EIQLMHQ[hArg]AKWLNE-NH2; lactam 13-17)",14.1,1.03 ± 0.03,85 % of vehicle
"CC[C@H](C)[C@H](NC(=O)[C@H](CCC(=O)O)NC(=O)C(C)(C)NC(=O)[C@@H](NC(=O)C1(N)CCCC1)C(C)C)C(=O)N[C@@H](CCC(N)=O)C(=O)N[C@@H](CC(C)C)C(=O)N[C@@H](CC(C)C)C(=O)N[C@@H](Cc1c[nH]cn1)C(=O)N[C@@H](CCC(N)=O)C(=O)N[C@@H](CCCCNC(=N)N)C(=O)N[C@@H](C)C(=O)N[C@H]1CNC(=O)C[C@@H](C(N)=O)NC(=O)[C@H](CC(N)=O)NC(=O)[C@H](CC(C)C)NC(=O)[C@H](Cc2c[nH]c3ccccc23)NC1=O [SEQ ID NO: 17, H-Ac5c-Val-Aib-Glu-Ile-Gln-Leu-Leu-His-Gln-Har-Ala-Dpr( )-Trp-Leu-Asn-Asp( )-NH2] (H-[Ac5c]V[Aib]EIQLLHQ[hArg]A[Dap]WLND-NH2; lactam 13-17)",776,1.25 ± 0.05,101 % of vehicle
"CC[C@H](C)[C@H](NC(=O)[C@H](CCC(=O)O)NC(=O)C(C)(C)NC(=O)[C@@H](NC(=O)C1(N)CCCC1)C(C)C)C(=O)N[C@@H](CCC(=O)O)C(=O)N[C@@H](CC(C)C)C(=O)N[C@@H](CCSC)C(=O)N[C@@H](Cc1c[nH]cn1)C(=O)N[C@@H](CCC(N)=O)C(=O)N[C@@H](CCCCNC(=N)N)C(=O)N[C@@H](C)C(=O)N[C@H]1CCCCNC(=O)C[C@@H](C(N)=O)NC(=O)[C@H](CC(N)=O)NC(=O)[C@H](CC(C)C)NC(=O)[C@H](Cc2c[nH]c3ccccc23)NC1=O [SEQ ID NO: 18, H-Ac5c-Val-Aib-Glu-IIe-Glu-Leu-Met-His-Gln-Har-Ala-Lys( )-Trp-Leu-Asn-Asp( )-NH2] (H-[Ac5c]V[Aib]EIELMHQ[hArg]AKWLND-NH2; lactam 13-17)",51.3,1.24 ± 0.29,89 % of vehicle
"CCCC[C@H](NC(=O)[C@H](CC(C)C)NC(=O)[C@H](CCC(N)=O)NC(=O)[C@@H](NC(=O)[C@H](CCC(=O)O)NC(=O)C(C)(C)NC(=O)[C@@H](NC(=O)C1(N)CCCC1)C(C)C)[C@@H](C)CC)C(=O)N[C@@H](Cc1c[nH]cn1)C(=O)N[C@@H](CCC(N)=O)C(=O)N[C@@H](CCCCNC(=N)N)C(=O)N[C@@H](C)C(=O)N[C@H]1CCCCNC(=O)C[C@@H](C(N)=O)NC(=O)[C@H](CC(N)=O)NC(=O)[C@H](CC(C)C)NC(=O)[C@H](Cc2c[nH]c3ccccc23)NC1=O [SEQ ID NO: 20, H-Ac5c-Val-Aib-Glu-Ile-Gln-Leu-Nle-His-Gln-Har-Ala-Lys( )-Trp-Leu-Asn-Asp( )-NH2] (H-[Ac5c]V[Aib]EIQL[Nle]HQ[hArg]AKWLND-NH2; lactam 13-17)",7.94,0.97 ± 0.04,99 % of vehicle
"CC[C@H](C)[C@H](NC(=O)[C@H](CCC(=O)O)NC(=O)C(C)(C)NC(=O)[C@@H](NC(=O)C1(N)CCCC1)C(C)C)C(=O)N[C@@H](CCC(N)=O)C(=O)N[C@@H](CC(C)C)C(=O)N[C@H](C(=O)N[C@@H](Cc1c[nH]cn1)C(=O)N[C@@H](CCC(N)=O)C(=O)N[C@@H](CCCCNC(=N)N)C(=O)N[C@@H](C)C(=O)N[C@H]1CCCCNC(=O)C[C@@H](C(N)=O)NC(=O)[C@H](CC(N)=O)NC(=O)[C@H](CC(C)C)NC(=O)[C@H](Cc2c[nH]c3ccccc23)NC1=O)C(C)C [SEQ ID NO: 21, H-Ac5c-Val-Aib-Glu-Ile-Gln-Leu-Val-His-Gln-Har-Ala-Lys( )-Trp-Leu-Asn-Asp( )-NH2] (H-[Ac5c]V[Aib]EIQLVHQ[hArg]AKWLND-NH2; lactam 13-17)",151,1.40 ± 0.27,92 % of vehicle
"CC[C@H](C)[C@H](NC(=O)[C@H](CCC(=O)O)NC(=O)C(C)(C)NC(=O)[C@@H](NC(=O)C1(N)CCCC1)C(C)C)C(=O)N[C@@H](CCC(N)=O)C(=O)N[C@@H](CC(C)C)C(=O)N[C@@H](CCSC)C(=O)N[C@@H](Cc1c[nH]cn1)C(=O)N[C@@H](CCC(=O)O)C(=O)N[C@@H](CCCCNC(=N)N)C(=O)N[C@@H](C)C(=O)N[C@H]1CCCCNC(=O)C[C@@H](C(N)=O)NC(=O)[C@H](CC(N)=O)NC(=O)[C@H](CC(C)C)NC(=O)[C@H](Cc2c[nH]c3ccccc23)NC1=O [SEQ ID NO: 24, H-Ac5c-Val-Aib-Glu-Ile-Gln-Leu-Met-His-Glu-Har-Ala-Lys( )-Trp-Leu-Asn-Asp( )-NH2] (H-[Ac5c]V[Aib]EIQLMHE[hArg]AKWLND-NH2; lactam 13-17)",126,1.4,83 % of vehicle
